Data on 20 compounds can be found in ChEMBL document CHEMBL5053543, “Macrocyclic BACE1 inhibitors with hydrophobic cross-linked structures: Optimization of ring size and ring structure” (Bioorg Med Chem, 2021).

Assay [1] deals with T1, Beta-secretase 1 (Homo sapiens, UniProt P56817). The assay can be described thus: Inhibition of recombinant BACE1 (unknown origin) using H-Ile-Lys-Thr-Glu-Glu-Ile-Ser-Glu-Val-Asn-Leu-Asp-Ala-Glu-Phe-Arg-His-Asp-Ser-Gly-NH2 peptide as substrate measured after 90 mins by analytical HPLC analysis.
Assay [2] concerns the target T1, Beta-secretase 1. Briefly: Inhibition of recombinant BACE1 (unknown origin) at 1500 uM using H-Ile-Lys-Thr-Glu-Glu-Ile-Ser-Glu-Val-Asn-Leu-Asp-Ala-Glu-Phe-Arg-His-Asp-Ser-Gly-NH2 peptide as substrate measured after 90 mins by analytical HPLC analysis relative to control.

T1 sequence (P56817 whole entry): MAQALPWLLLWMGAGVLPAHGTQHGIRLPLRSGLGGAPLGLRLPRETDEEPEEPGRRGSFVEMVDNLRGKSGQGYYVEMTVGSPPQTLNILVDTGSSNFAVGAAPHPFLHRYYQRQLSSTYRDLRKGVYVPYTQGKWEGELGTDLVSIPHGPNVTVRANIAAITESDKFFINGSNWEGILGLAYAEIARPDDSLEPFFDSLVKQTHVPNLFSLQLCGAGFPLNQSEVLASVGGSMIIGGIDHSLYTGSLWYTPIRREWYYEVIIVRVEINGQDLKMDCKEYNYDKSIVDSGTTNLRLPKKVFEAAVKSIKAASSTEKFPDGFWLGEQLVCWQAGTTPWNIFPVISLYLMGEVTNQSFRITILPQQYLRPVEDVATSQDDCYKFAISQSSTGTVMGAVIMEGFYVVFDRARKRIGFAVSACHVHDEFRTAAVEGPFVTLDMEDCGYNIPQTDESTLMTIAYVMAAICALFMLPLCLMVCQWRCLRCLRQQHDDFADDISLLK

In general, IC50 refers to the point on the concentration scale where inhibition reaches its midpoint. `CCC[C@@H]1NC(=O)[C@@H](NC(=O)[C@@H](N)CCC(=O)O)[C@@H](C)OC/C=C/C[C@@H]([C@H](O)CNc2ccc(C)cc2)NC1=O`: the IC50 in assay [1] came out at 1420 µM.

By inhibition is commonly meant the percentage by which the read-out fell short of the control. Consider `CCC[C@@H]1NC(=O)[C@@H](NC(=O)[C@@H](N)CCC(=O)O)C/C=C/CC[C@@H]([C@H](O)CNc2ccc(C)cc2)NC1=O`, for which, in assay [1], the IC50 is over 1500 µM. Also, the inhibition in assay [2] is 20%.

`CCC[C@@H]1NC(=O)[C@@H](NC(=O)[C@@H](N)CCC(=O)O)[C@@H](C)OC/C=C\C[C@@H]([C@H](O)CNc2ccc(C)cc2)NC1=O`: in assay [1], the IC50 turned out to be 117 µM.

Take `CCC[C@@H]1NC(=O)[C@@H](NC(=O)[C@@H](N)CCC(=O)O)C(C)(C)OC/C=C\C[C@@H]([C@H](O)CNc2ccc(C)cc2)NC1=O`: the IC50 in assay [1] was 3.9 µM.

In the case of `CCC[C@@H]1NC(=O)[C@@H](NC(=O)[C@@H](N)CCC(=O)O)C(C)(C)OCCCC[C@@H]([C@H](O)CNc2ccc(CC(=O)O)cc2)NC1=O`, the IC50 in assay [1] is 1.6 µM.

Turning to `CCC[C@@H]1NC(=O)[C@@H](NC(=O)[C@@H](N)CCC(=O)O)CC/C=C/CC[C@@H]([C@H](O)CNc2ccc(C)cc2)NC1=O`, the IC50 in assay [1] came out at 380 µM.

For `CCC[C@@H]1NC(=O)[C@@H](NC(=O)[C@@H](N)CCC(=O)O)CCCCCC[C@@H]([C@H](O)CNc2ccc(C)cc2)NC1=O`, the IC50 in assay [1] amounted to 780 µM.

`CCC[C@@H]1NC(=O)[C@@H](NC(=O)[C@@H](N)CCC(=O)O)[C@H](C)OCCCC[C@@H]([C@H](O)CNc2ccc(C)cc2)NC1=O`: the IC50 in assay [1] came to 135 µM.

As to `CCC[C@@H]1NC(=O)[C@@H](NC(=O)[C@@H](N)CCC(=O)O)COC/C=C\CC[C@@H]([C@H](O)CNc2ccc(C)cc2)NC1=O`, the IC50 in assay [1] is over 1500 µM. For the same compound, the inhibition in assay [2] turned out to be 20%.

On to `CCC[C@@H]1NC(=O)[C@@H](NC(=O)[C@@H](N)CCC(=O)O)CC/C=C\CC[C@@H]([C@H](O)CNc2ccc(C)cc2)NC1=O`, for which the IC50 in assay [1] worked out at 1410 µM.

In the case of `CCC[C@@H]1NC(=O)[C@@H](NC(=O)[C@@H](N)CCC(=O)O)C/C=C\CC[C@@H]([C@H](O)CNc2ccc(C)cc2)NC1=O`, the IC50 in assay [1] was found to be 1050 µM.

Turning to `CCC[C@@H]1NC(=O)[C@@H](NC(=O)[C@@H](N)CCC(=O)O)COC/C=C/CC[C@@H]([C@H](O)CNc2ccc(C)cc2)NC1=O`, the IC50 in assay [1] was over 1500 µM. For the same compound, the inhibition in assay [2] is 20%.

Take `CCC[C@@H]1NC(=O)[C@@H](NC(=O)[C@@H](N)CCC(=O)O)[C@H](C)OC/C=C\C[C@@H]([C@H](O)CNc2ccc(C)cc2)NC1=O`: the IC50 in assay [1] is 11.7 µM.

With `CCC[C@@H]1NC(=O)[C@@H](NC(=O)[C@@H](N)CCC(=O)O)[C@H](C)OC/C=C/C[C@@H]([C@H](O)CNc2ccc(C)cc2)NC1=O`, the IC50 in assay [1] came out at 1000 µM.

With `CCC[C@@H]1NC(=O)[C@@H](NC(=O)[C@@H](N)CCC(=O)O)C(C)(C)OC/C=C\C[C@@H]([C@H](O)CNc2ccc(CC(=O)O)cc2)NC1=O`, in assay [1], the IC50 was 1.2 µM.

In the case of `CCC[C@@H]1NC(=O)[C@@H](NC(=O)[C@@H](N)CCC(=O)O)COCCCCC[C@@H]([C@H](O)CNc2ccc(C)cc2)NC1=O`, the IC50 in assay [1] is over 1500 µM. In assay [2], the inhibition was 20%.

For `CCC[C@@H]1NC(=O)[C@@H](NC(=O)[C@@H](N)CCC(=O)O)C(C)(C)OCCCC[C@@H]([C@H](O)CNc2ccc(C)cc2)NC1=O`, in assay [1], the IC50 is 6.1 µM.

On to `CCC[C@@H]1NC(=O)[C@@H](NC(=O)[C@@H](N)CCC(=O)O)[C@@H](C)OCCCC[C@@H]([C@H](O)CNc2ccc(C)cc2)NC1=O`, for which the IC50 in assay [1] came out at 1000 µM.

On to `CCC[C@H](NC(=O)[C@@H](NC(=O)[C@@H](N)CCC(=O)O)[C@@H](C)CC)C(=O)N[C@@H](CC(C)C)[C@H](O)CNc1ccc(C)cc1`, for which the IC50 in assay [1] was 6.1 µM.

As for `CCC[C@@H]1NC(=O)[C@@H](NC(=O)[C@@H](N)CCC(=O)O)CCCCC[C@@H]([C@H](O)CNc2ccc(C)cc2)NC1=O`, the IC50 in assay [1] stood at 1400 µM.
